These results are taken from US12435061B2 (priority 2020, dated 2025).

For the assay, the target named is hTRPV3 (Homo sapiens (Human), UniProt Q8NET8). Put plainly: Whole-cell patch clamp, hTRPV3 Phase 1 / Phase 2 currents. It counts as cell-based. The gist of the method: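 Currents are activated by 20 μM 2-APB or by perfusate at 28 °C or warmer, in Ringer's solution, and quantified at ±80 mV.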
A general note: In patch-clamp work, channel activity is measured electrically.

Where [1] appears, read: Phase 1 current, inward, whole-cell patch clamp, read-out: hTRPV3 Patch P1 Inwd.
Where [2] appears, read: Phase 1 current, read-out: hTRPV3 (nM) (Phase 1).
Setting [3] is: Phase 2 current, inward, whole-cell patch clamp, read-out: hTRPV3 Patch P2 Inwd.
[4] abbreviates: Phase 2 current, read-out: hTRPV3 (nM) (Phase 2).
The mark [5] stands for this setting: Phase 1 current, human TRPV3, read-out: hTRPV3 (nM) Phase 1.

Like-named read-outs stand apart in the source and are kept apart here.

Sequence of hTRPV3 (Q8NET8 whole entry): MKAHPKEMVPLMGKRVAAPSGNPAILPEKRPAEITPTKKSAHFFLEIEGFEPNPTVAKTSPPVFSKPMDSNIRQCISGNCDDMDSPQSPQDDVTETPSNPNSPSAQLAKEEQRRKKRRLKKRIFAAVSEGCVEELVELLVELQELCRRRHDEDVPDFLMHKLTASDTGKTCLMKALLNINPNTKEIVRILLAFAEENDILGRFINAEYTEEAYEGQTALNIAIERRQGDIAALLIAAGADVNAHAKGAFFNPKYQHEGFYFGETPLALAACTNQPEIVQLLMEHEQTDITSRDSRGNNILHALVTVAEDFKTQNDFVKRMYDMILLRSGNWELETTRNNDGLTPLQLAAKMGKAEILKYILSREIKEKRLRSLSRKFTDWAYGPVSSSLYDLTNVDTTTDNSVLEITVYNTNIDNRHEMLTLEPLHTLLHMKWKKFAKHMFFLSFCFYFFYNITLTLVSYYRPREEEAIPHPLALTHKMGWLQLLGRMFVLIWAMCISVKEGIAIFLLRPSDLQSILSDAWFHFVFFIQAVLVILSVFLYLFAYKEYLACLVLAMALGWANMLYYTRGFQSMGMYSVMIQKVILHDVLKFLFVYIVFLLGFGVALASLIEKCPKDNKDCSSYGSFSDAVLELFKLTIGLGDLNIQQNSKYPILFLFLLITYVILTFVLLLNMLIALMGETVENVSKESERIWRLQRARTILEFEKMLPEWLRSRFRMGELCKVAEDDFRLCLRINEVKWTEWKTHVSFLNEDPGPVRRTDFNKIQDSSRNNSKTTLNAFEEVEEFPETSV

Consider `NC(=O)c1cc(-c2ccccc2)cnc1N1CC[C@H](Nc2ccc(C(F)(F)F)cn2)C1` [Compound 1-374, (S)-5-phenyl-2-(3-(5-(trifluoromethyl)pyridin-2-ylamino)pyrrolidin-1-yl)nicotinamide], for which the IC50 was more than 1000 nM under setting [1], more than 3200 nM under setting [2], more than 1000 nM under setting [3] and more than 3200 nM under setting [4].
For the compound `NC(=O)c1cc(-c2ccccn2)ccc1N1CC[C@H](Nc2ccc(C(F)(F)F)cn2)C1` [Compound 1-376, (S)-5-(pyridin-2-yl)-2-(3-(5-(trifluoromethyl)pyridin-2-ylamino)pyrrolidin-1-yl)benzamide], the IC50 runs as follows: under setting [1], more than 1000 nM; under setting [2], more than 3200 nM; under setting [3], more than 1000 nM; under setting [4], more than 3200 nM.
For `NC(=O)c1cc(-c2ccccc2)cnc1N1CC[C@@H](Nc2ccc(C(F)(F)F)cn2)C1` [Compound 1-378, (R)-5-phenyl-2-(3-(5-(trifluoromethyl)pyridin-2-ylamino)pyrrolidin-1-yl)nicotinamide], the IC50 reads like this: under setting [1], more than 1000 nM; under setting [2], more than 3200 nM; under setting [3], more than 1000 nM; under setting [4], more than 3200 nM.
Turning to `Cc1ccccc1-c1ccc(N2CC[C@H](Nc3ccc(C(F)(F)F)cn3)C2)c(CO)n1` [Compound 1-379, (S)-(6-o-tolyl-3-(3-(5-(trifluoromethyl)pyridin-2-ylamino)pyrrolidin-1-yl)pyridin-2-yl)methanol], the IC50 by setting is: under setting [1], more than 1000 nM; under setting [2], more than 3200 nM; under setting [3], more than 1000 nM; under setting [4], more than 3200 nM.
With `CCc1ccccc1C(=O)c1ccc(N2CC[C@H](Nc3ncccc3Cl)C2)c(CO)c1` [Compound 1-384, (S)-(4-(3-(3-chloropyridin-2-ylamino)pyrrolidin-1-yl)-3-(hydroxymethyl)phenyl)(2-ethylphenyl)methanone], the IC50 was 100 to 1000 nM under setting [1] and 495 nM under setting [2].
For `CCc1ccccc1C(O)c1ccc(N2CC[C@H](Nc3ncccc3Cl)C2)c(CCO)c1` (stereo partly drawn) [Compound 1-385, 2-(2-((S)-3-(3-chloropyridin-2-ylamino)pyrrolidin-1-yl)-5-((2-ethylphenyl)(hydroxy)methyl)phenyl)ethanol], in that order: more than 1000 nM and more than 3200 nM.
Consider `CCc1ccccc1C(O)c1ccc(N2CC[C@H](Nc3ncccc3Cl)C2)c(CO)c1` (stereo partly drawn) [Compound 1-386, (4-((S)-3-(3-chloropyridin-2-ylamino)pyrrolidin-1-yl)-3-(hydroxymethyl)phenyl)(2-ethylphenyl)methanol], for which the IC50 under setting [1] is more than 1000 nM, the IC50 under setting [2] is approximately 1260 nM, the IC50 under setting [3] was more than 1000 nM and the IC50 under setting [4] is approximately 2150 nM.
`CCc1ccccc1C(=O)c1ccc(N2CC[C@H](Nc3ncccc3Cl)C2)c(CCO)c1` [Compound 1-387, (S)-(4-(3-(3-chloropyridin-2-ylamino)pyrrolidin-1-yl)-3-(2-hydroxyethyl)phenyl)(2-ethylphenyl)methanone]: the IC50 under setting [1] is more than 1000 nM and the IC50 under setting [2] was determined as 1630 nM.
Regarding `O=C(c1ccc(Cl)cc1)c1ccc(N2CC[C@H](Nc3ccc(F)cn3)C2)c(CCO)c1` [Compound 1-388, (S)-(4-chlorophenyl)(4-(3-(5-fluoropyridin-2-ylamino)pyrrolidin-1-yl)-3-(2-hydroxyethyl)phenyl)methanone], the IC50 was more than 1000 nM under setting [1] and more than 3200 nM under setting [2].
`O=C(c1ccc(N2CC[C@H](Nc3ccc(F)cn3)C2)c(CCO)c1)c1ccccc1Cl` [Compound 1-389, (S)-(2-chlorophenyl)(4-(3-(5-fluoropyridin-2-ylamino)pyrrolidin-1-yl)-3-(2-hydroxyethyl)phenyl)methanone]: the IC50 reads like this: under setting [1], more than 1000 nM; under setting [2], more than 3200 nM.
In the case of `OCCc1cc(C(O)c2ccc(Cl)cc2)ccc1N1CC[C@H](Nc2ccc(F)cn2)C1` (stereo partly drawn) [Compound 1-391, 2-(5-((4-chlorophenyl)(hydroxy)methyl)-2-((S)-3-(5-fluoropyridin-2-ylamino)pyrrolidin-1-yl)phenyl)ethanol], the IC50 by setting is: under setting [1], more than 1000 nM; under setting [2], more than 3200 nM.
On to `OCCc1cc(C(O)c2cccc(Cl)c2)ccc1N1CC[C@H](Nc2ccc(F)cn2)C1` (stereo partly drawn) [Compound 1-392, 2-(5-((3-chlorophenyl)(hydroxy)methyl)-2-((S)-3-(5-fluoropyridin-2-ylamino)pyrrolidin-1-yl)phenyl)ethanol], for which the IC50 was more than 1000 nM under setting [1] and more than 3200 nM under setting [2].
For the compound `O=C(c1cccc(Cl)c1)c1ccc(N2CC[C@H](Nc3ccc(F)cn3)C2)c(CCO)c1` [Compound 1-393, (S)-(3-chlorophenyl)(4-(3-(5-fluoropyridin-2-ylamino)pyrrolidin-1-yl)-3-(2-hydroxyethyl)phenyl)methanone], the IC50 by setting is: under setting [1], more than 1000 nM; under setting [2], approximately 2950 nM; under setting [3], more than 1000 nM; under setting [4], more than 3200 nM.
As to `OCc1nc(-c2ccccc2)ccc1N1CC[C@H](Oc2nc(C(F)(F)F)cs2)C1` [Compound 1-396, (S)-(6-phenyl-3-(3-(4-(trifluoromethyl)thiazol-2-yloxy)pyrrolidin-1-yl)pyridin-2-yl)methanol], the IC50 was more than 1000 nM under setting [1], 1130 nM under setting [2], more than 1000 nM under setting [3] and 2900 nM under setting [4].
Take `OCc1cc(-c2ccccc2)ccc1N1CC[C@H](Oc2ccc(C(F)(F)F)nn2)C1` [Compound 1-397, (S)-(4-(3-(6-(trifluoromethyl)pyridazin-3-yloxy)pyrrolidin-1-yl)biphenyl-3-yl)methanol]: the IC50 reads like this: under setting [1], more than 1000 nM; under setting [2], 2740 nM; under setting [3], more than 1000 nM; under setting [4], 1370 nM.
For the compound `Cc1cccnc1CO[C@H]1CCN(c2ccc(-c3ccccc3)cc2CO)C1` [Compound 1-399], the IC50 runs as follows: under setting [2], more than 3200 nM; under setting [4], 481 nM.
As for `Cc1cccc(C(O)c2ccc(C3CCN(C(=O)c4ncccc4Cl)C3)c(CO)c2)c1` (centres unmarked) [Compound 2-2, (3-chloropyridin-2-yl)(3-(4-(hydroxy(m-tolyl)methyl)-2-(hydroxymethyl)phenyl)pyrrolidin-1-yl)methanone], the IC50 under setting [1] lay in the range of 100 to 1000 nM.
In the case of `O=C(c1ncccc1Cl)N1CCC(c2ccc(C(O)c3ccc(F)cc3)cc2CO)C1` (centres unmarked) [Compound 2-4, (3-chloropyridin-2-yl)(3-(4-((4-fluorophenyl)(hydroxy)methyl)-2-(hydroxymethyl)phenyl)pyrrolidin-1-yl)methanone], the IC50 is, setting by setting: under setting [5], more than 3200 nM; under setting [1], more than 1000 nM.
Turning to `O=C(c1ncccc1Cl)N1CCC(c2ccc(C(O)c3ccccc3F)cc2CO)C1` (centres unmarked) [Compound 2-5, (3-chloropyridin-2-yl)(3-(4-((2-fluorophenyl)(hydroxy)methyl)-2-(hydroxymethyl)phenyl)pyrrolidin-1-yl)methanone], the IC50 runs as follows: under setting [5], more than 3200 nM; under setting [1], more than 1000 nM.
Regarding `Cc1ccc(C(O)c2ccc(C3CCN(C(=O)c4ncccc4Cl)C3)c(CO)c2)cc1` (centres unmarked) [Compound 2-6, (3-chloropyridin-2-yl)(3-(4-(hydroxy(p-tolyl)methyl)-2-(hydroxymethyl)phenyl)pyrrolidin-1-yl)methanone], the IC50 reads like this: under setting [5], more than 3200 nM; under setting [1], more than 1000 nM.
On to `Cc1ccc(C(=O)c2ccc(C3CCN(C(=O)c4ncccc4Cl)C3)c(CO)c2)cc1` (centres unmarked) [Compound 2-7], for which the IC50 reads like this: under setting [5], more than 3200 nM; under setting [1], more than 1000 nM.
For `Cc1cccc(C(=O)c2ccc(C3CCN(C(=O)c4ncccc4Cl)C3)c(CO)c2)c1` (centres unmarked) [Compound 2-9, (4-(1-(3-chloropicolinoyl)pyrrolidin-3-yl)-3-(hydroxymethyl)phenyl)(m-tolyl)methanone], in that order: more than 3200 nM and more than 1000 nM.
Consider `O=C(c1ccc(F)cc1)c1ccc(C2CCN(C(=O)c3ncccc3Cl)C2)c(CO)c1` (centres unmarked) [Compound 2-10, (4-(1-(3-chloropicolinoyl)pyrrolidin-3-yl)-3-(hydroxymethyl)phenyl)(4-fluorophenyl)methanone], for which the IC50 under setting [5] is more than 3200 nM and the IC50 under setting [1] was more than 1000 nM.
For `O=C(c1ncccc1Cl)N1CCC(c2ccc(C(O)c3ccccc3Cl)cc2CO)C1` (centres unmarked) [Compound 2-11, (3-(4-((2-chlorophenyl)(hydroxy)methyl)-2-(hydroxymethyl)phenyl)pyrrolidin-1-yl)(3-chloropyridin-2-yl)methanone], in that order: more than 3200 nM and more than 1000 nM.
As for `CC(C)c1ccccc1Oc1ccc(C2CCN(C(=O)c3ccccn3)C2)c(CO)c1` (centres unmarked) [Compound 2-13, (3-(2-(hydroxymethyl)-4-(2-isopropylphenoxy)phenyl)pyrrolidin-1-yl)(pyridin-2-yl)methanone], the IC50 under setting [5] came to 193 nM and the IC50 under setting [1] fell in the range of 100 to 1000 nM.
In the case of `O=C(c1ccc(C2CCN(C(=O)c3ncccc3Cl)C2)c(CO)c1)c1ccccc1Cl` (centres unmarked) [Compound 2-14, (3-(4-(2-chlorobenzoyl)-2-(hydroxymethyl)phenyl)pyrrolidin-1-yl)(3-chloropyridin-2-yl)methanone], the IC50 by setting is: under setting [5], more than 3200 nM; under setting [1], more than 1000 nM.
Take `CCc1ccccc1C(=O)c1ccc(C2CCN(C(=O)c3ncccc3Cl)C2)c(CO)c1` (centres unmarked) [Compound 2-15, (4-(1-(3-chloropicolinoyl)pyrrolidin-3-yl)-3-(hydroxymethyl)phenyl)(2-ethylphenyl)methanone]: the IC50 is more than 3200 nM under setting [5] and more than 1000 nM under setting [1].
Take `Cc1cccc(C(=O)N2CCC(c3ccc(Oc4ccccc4C(C)C)cc3CO)C2)n1` (centres unmarked) [Compound 2-19, (3-(2-(hydroxymethyl)-4-(2-isopropylphenoxy)phenyl)pyrrolidin-1-yl)(6-methylpyridin-2-yl)methanone]: the IC50 is 191 nM under setting [5] and 10 to 100 nM under setting [1].
